The target in series [1] is T1, COX-1 (Homo sapiens, UniProt P23219).
T1 construct: endogenous in cells; host or cells: heparinised human whole blood from donors, stimulated with the calcium ionophore A23187
The series can be described thus: Human COX-1 enzyme activity in human whole blood (A23187-stimulated, thromboxane B2 EIA). Type of series: cell-based. The conditions noted are these: for inhibition at 100 µM: read-out: COX-1 Inhibition (% at 100 μM). The method, then: (§1) The blood was transported to the laboratory on ice packs and used within 1.5 hours of collection. Upon receipt in the laboratory, the blood was allowed to come to room temperature for 15 minutes prior to distribution in 1 mL aliquots per well of 24 well tissue culture plates. […] Test compounds were dissolved in DMSO, at 1000 fold the final desired concentration, and further diluted, as indicated, in DMSO. One μL of each dilution of the test compound was added per well, in duplicate wells; wells not receiving test compound (e.g., basal, background or control wells) received 1 μL DMSO. […] Louis, Mo., Catalogue No. […] Louis, Mo., Catalogue No. […] (Again, basal, background or control wells not stimulated with A23187 received 1 μL of DMSO.) At 5 hours after the addition of the test compound, all incubations were terminated by placement on ice and the addition of 2 mM EGTA (100 μL of 20 mM EGTA, tetrasodium, in PBS (phosphate buffered saline) without Ca^++ and Mg^++, pH 7.2)). […] One hundred μL of plasma was removed from each blood sample and added to 1 mL of methanol in new 15 mL polypropylene centrifuge tubes, vortexed, and stored overnight at -20° C. […] The samples were assayed for thromboxane B2 using EIA kits supplied by Cayman Chemical Co. […] The % inhibition for COX-1 and COX-2 enzyme activity in human whole blood by the test compounds, at the indicated concentrations, are given in Table 1.

In series [2] the target is T2, COX-2 (Homo sapiens, UniProt P35354).
T2 construct: To induce COX-2, lipopolysaccharide (LPS) from E. coli; endogenous in cells; host or cells: heparinised human whole blood from donors, with COX-2 induced by E. coli LPS
T2 sequence (P35354 18-604): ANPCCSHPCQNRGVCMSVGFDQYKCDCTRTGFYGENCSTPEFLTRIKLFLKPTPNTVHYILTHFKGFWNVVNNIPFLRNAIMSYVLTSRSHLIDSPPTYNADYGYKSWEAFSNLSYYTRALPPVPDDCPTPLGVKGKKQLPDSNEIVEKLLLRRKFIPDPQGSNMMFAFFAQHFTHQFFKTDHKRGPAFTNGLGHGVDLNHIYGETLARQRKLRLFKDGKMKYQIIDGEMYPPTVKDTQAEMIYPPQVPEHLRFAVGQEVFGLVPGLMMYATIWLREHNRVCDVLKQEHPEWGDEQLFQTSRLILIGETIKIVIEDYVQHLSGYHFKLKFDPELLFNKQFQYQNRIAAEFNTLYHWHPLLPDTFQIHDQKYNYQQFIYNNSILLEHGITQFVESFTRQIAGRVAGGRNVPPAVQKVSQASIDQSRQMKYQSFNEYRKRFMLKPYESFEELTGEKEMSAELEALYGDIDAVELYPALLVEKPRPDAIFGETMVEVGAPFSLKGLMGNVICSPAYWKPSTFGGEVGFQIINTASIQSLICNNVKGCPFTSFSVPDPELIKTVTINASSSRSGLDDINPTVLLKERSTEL
The series can be described thus: Human COX-2 enzyme activity in human whole blood (LPS-induced, thromboxane B2 EIA). It counts as cell-based. The conditions noted are these: for inhibition at 1 µM: read-out: COX-2 Inhibition (% at 1 μM); for inhibition at 10 µM: read-out: COX-2 Inhibition (% at 10 μM). The method, then:
as §1

Where [3] appears, read: 100 μM, human whole blood, A23187 stimulation.
The mark [4] stands for this setting: 1 μM, human whole blood, LPS induction.
Setting [5] is: 10 μM, human whole blood, LPS induction.

For orientation: inhibition means the relative decrease from the control value, in per cent. A word on the melting point: it is the temperature of the solid-liquid transition.

Like-named read-outs stand apart in the source and are kept apart here.

T1 sequence (P23219 24-599): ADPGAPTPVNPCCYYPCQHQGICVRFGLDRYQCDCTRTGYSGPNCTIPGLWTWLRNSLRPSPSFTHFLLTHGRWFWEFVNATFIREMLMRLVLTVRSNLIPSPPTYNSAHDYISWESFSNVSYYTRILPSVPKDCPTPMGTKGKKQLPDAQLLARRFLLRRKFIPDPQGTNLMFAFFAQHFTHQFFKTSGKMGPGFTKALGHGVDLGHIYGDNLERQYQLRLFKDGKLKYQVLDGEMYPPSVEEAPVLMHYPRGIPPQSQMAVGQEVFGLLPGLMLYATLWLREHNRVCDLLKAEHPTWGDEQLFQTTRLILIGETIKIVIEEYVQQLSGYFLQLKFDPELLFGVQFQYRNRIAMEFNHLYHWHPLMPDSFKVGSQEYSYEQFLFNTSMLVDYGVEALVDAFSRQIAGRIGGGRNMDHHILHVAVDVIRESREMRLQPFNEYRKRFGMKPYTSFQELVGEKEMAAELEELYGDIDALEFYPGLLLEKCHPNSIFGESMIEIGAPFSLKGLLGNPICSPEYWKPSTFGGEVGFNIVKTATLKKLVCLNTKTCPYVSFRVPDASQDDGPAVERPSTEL

For the compound `CS(=O)(=O)c1ccc(-c2cc(/C=C\CCO[N+](=O)[O-])nn2C2CCCCC2)cc1` [Example 4f, 1-(3-((1Z)-4-(Nitrooxy)but-1-enyl)-1-cyclohexylpyrazol-5-yl)-4-(methylsulfonyl)benzene], the melting point was in the range of 137 to 138 °C. Besides, in series [1] (setting [3]), the inhibition at 100 µM was 20%. For the same compound, the inhibition at 1 µM in series [2] (setting [4]) was found to be 70%. Also, the inhibition at 10 µM in series [2] (setting [5]) is 95%.
For `NS(=O)(=O)c1ccc(-c2c(-c3ccccc3)noc2COCCS(=O)(=O)CCO[N+](=O)[O-])cc1` [Example 37c], the “COX-1 Inhibition (% at 100 μM)” value in series [1] (setting [3]) is on record as −15%. In addition, the “COX-2 Inhibition (% at 1 μM)” value in series [2] (setting [4]) amounted to 20%. The “COX-2 Inhibition (% at 10 μM)” value in series [2] (setting [5]) was 20%.
In the case of `CS(=O)(=O)c1ccc(-c2cc(CNCCO)nn2C2CCCCC2)cc1` [Example 38c, 1-(1-Cyclohexyl-3-(((2-hydroxyethyl)amino)methyl)pyrazol-5-yl)-4-(methylsulfonyl)benzene], in series [1] (setting [3]), the inhibition at 100 µM stood at 10%. Moreover, the inhibition at 1 µM in series [2] (setting [4]) was found to be 15%. In addition, the inhibition at 10 µM in series [2] (setting [5]) is 25%.
Turning to `CS(=O)(=O)c1ccc(-c2cc(COCCCO[N+](=O)[O-])nn2-c2ccc(C(F)(F)F)cc2)cc1` [Example 9e, 4-(Methylsulfonyl)-1-(3-((3-(nitrooxy)propoxy)methyl)-1-(4-(trifluoromethyl)phenyl)pyrazol-5-yl)benzene], in series [1] (setting [3]), the inhibition at 100 µM turned out to be 45%. The inhibition at 1 µM in series [2] (setting [4]) turned out to be 60%. Besides, in series [2] (setting [5]), the inhibition at 10 µM stood at 100%.
Compound `CS(=O)(=O)c1ccc(-c2cc(CCCO[N+](=O)[O-])nn2C2CCCCC2)cc1` [Example 31e, 4-(1-Cyclohexyl-3-(3-(nitrooxy)propyl)pyrazol-5-yl)-1-(methylsulfonyl)benzene] registered a melting point of 77 °C.
`CS(=O)(=O)c1ccc(-c2cc(C(=O)CCCO)nn2-c2ccc(Cl)cc2)cc1` [Example 44d, 1-(1-(4-Chlorophenyl)-5-(4-(methylsulfonyl)phenyl)pyrazol-3-yl)-4-hydroxybutan-1-one]: in series [1] (setting [3]), the inhibition at 100 µM came to 10%. Further, the inhibition at 1 µM in series [2] (setting [4]) was found to be 30%. Further, the inhibition at 10 µM in series [2] (setting [5]) came out at 60%.
In the case of `COc1ccc(-n2nc(COCCCO[N+](=O)[O-])cc2-c2ccc(S(C)(=O)=O)cc2)cc1[N+](=O)[O-]` [Example 10e, 1-(1-(4-Methoxy-3-nitrophenyl)-3-((3-(nitrooxy)propoxy)methyl)pyrazol-5-yl)-4-(methylsulfonyl)benzene], the inhibition at 100 µM in series [1] came out at 85%. Moreover, in series [2], the inhibition at 1 µM amounted to 70% and the inhibition at 10 µM is 100%.
`CS(=O)(=O)c1ccc(-c2cc(C(=O)NCCO[N+](=O)[O-])nn2C2CCCCC2)cc1` [Example 45c, (1-Cyclohexyl-5-(4-(methylsulfonyl)phenyl)pyrazol-3-yl)-N-(2-(nitrooxy)ethyl)carboxamide] returned a melting point of 168 to 170 °C.
`CS(=O)(=O)c1ccc(-c2cc(CCO[N+](=O)[O-])nn2C2CCCCC2)cc1` [Example 30d, 4-(1-Cyclohexyl-3-(2-(nitrooxy)ethyl)pyrazol-5-yl)-1-(methylsulfonyl)benzene] had a melting point of 117 °C.
The same measure, in the same setting: for `Cc1ccc(-c2[nH]nc(COCCCO[N+](=O)[O-])c2-c2ccc(S(N)(=O)=O)cc2)cc1` [Example 20g, 4-(5-(4-Methylphenyl)-3-((3-(nitrooxy)propoxy)methyl)pyrazolyl)benzenesulfonamide] the value was 62 °C.
On to `CC(CCOCc1cc(-c2ccc(S(C)(=O)=O)cc2)n(-c2ccccc2)n1)O[N+](=O)[O-]` (centres unmarked) [Example 19c, 4-(Methylsulfonyl)-1-(3-((3-(nitrooxy)butoxy)methyl)-1-phenylpyrazol-5-yl)benzene], for which the inhibition at 100 µM in series [1] (setting [3]) is 35%. The inhibition at 1 µM in series [2] (setting [4]) came to 20%. For the same compound, the inhibition at 10 µM in series [2] (setting [5]) turned out to be 30%.
In the case of `CS(=O)(=O)c1ccc(-c2cc(/C=C\CCO)nn2-c2ccccc2)cc1` [Example 11d], in series [1] (setting [3]), the “COX-1 Inhibition (% at 100 μM)” value was found to be 25%. Besides, the “COX-2 Inhibition (% at 1 μM)” value in series [2] (setting [4]) was 0%. For the same compound, in series [2] (setting [5]), the “COX-2 Inhibition (% at 10 μM)” value is listed as 30%.
As to `CS(=O)(=O)c1ccc(-c2cc(COCCCO)nn2-c2ccc(C(F)(F)F)cc2)cc1` [Example 9d, 1-(3-((3-Hydroxypropoxy)methyl)-1-(4-(trifluoromethyl)phenyl)pyrazol-5-yl)-4-(methylsulfonyl)benzene], the inhibition at 100 µM in series [1] (setting [3]) worked out at 40%. Also, the inhibition at 1 µM in series [2] (setting [4]) is 30%. The inhibition at 10 µM in series [2] (setting [5]) came to 85%.
Consider `Cc1ccc(-n2nc(COCCCO[N+](=O)[O-])cc2-c2ccc(S(C)(=O)=O)cc2)cc1` [Example 8e, 1-(1-(4-methylphenyl)-3-((3-(nitrooxy)propoxy)methyl)pyrazol-5-yl)-4-(methylsulfonyl)benzene], for which the inhibition at 100 µM in series [1] (setting [3]) was 90%. In addition, the inhibition at 1 µM in series [2] (setting [4]) stood at 50%. Further, in series [2] (setting [5]), the inhibition at 10 µM is 95%.
Regarding `CC(O)CCOCc1cc(-c2ccc(S(C)(=O)=O)cc2)n(-c2ccccc2)n1` (centres unmarked) [Example 19b, 1-(3-((3-Hydroxybutoxy)methyl)-1-phenylpyrazol-5-yl)-4-(methylsulfonyl)benzene], the inhibition at 100 µM in series [1] (setting [3]) came to 40%. For the same compound, the inhibition at 1 µM in series [2] (setting [4]) was found to be 20%. Besides, in series [2] (setting [5]), the inhibition at 10 µM turned out to be 100%.
As to `CS(=O)(=O)c1ccc(-c2cc(C(F)(F)OCCCO[N+](=O)[O-])nn2-c2ccccc2)cc1` [Example 6f, 1-(3-(Difluoro(3-(nitrooxy)propoxy)methyl)-1-phenylpyrazol-5-yl)-4-(methylsulfonyl)benzene], the inhibition at 100 µM in series [1] (setting [3]) stood at 80%. Moreover, the inhibition at 1 µM in series [2] (setting [4]) turned out to be 50%. In addition, the inhibition at 10 µM in series [2] (setting [5]) was 95%.
On the same counts, the results for `CS(=O)(=O)c1ccc(-c2cc(C(F)(F)OCCCO)nn2-c2ccccc2)cc1` [Example 6e, 1-(3-(Difluoro(3-hydroxypropoxy)methyl)-1-phenylpyrazol-5-yl)-4-(methylsulfonyl)benzene] are 40%, 50% and 85%.
In the case of `NS(=O)(=O)c1ccc(-c2c(-c3ccccc3)noc2COCC(F)(F)CO[N+](=O)[O-])cc1` [Example 32d, 4-(5-((2,2-Difuoro-3-(nitrooxy)propoxy)methyl)-3-phenylisoxazol-4-yl)benzenesulfoamide], the “COX-1 Inhibition (% at 100 μM)” value in series [1] (setting [3]) is reported as 0%. In addition, the “COX-2 Inhibition (% at 1 μM)” value in series [2] (setting [4]) is reported as 20%. Also, in series [2] (setting [5]), the “COX-2 Inhibition (% at 10 μM)” value stood at 85%.
With `CS(=O)(=O)c1ccc(-c2cc(COc3cccc(CO[N+](=O)[O-])c3)nn2C2CCCCC2)cc1` [Example 17d, 1-(1-Cyclohexyl-3-((3-((nitrooxy)methyl)phenoxy)methyl)pyrazol-5-yl)-4-(methylsulfonyl)benzene], the inhibition at 100 µM in series [1] (setting [3]) came to 25%. Further, the inhibition at 1 µM in series [2] (setting [4]) amounted to 0%. In addition, in series [2] (setting [5]), the inhibition at 10 µM is 25%.
On to `CS(=O)(=O)c1ccc(-c2cc(COCCO[N+](=O)[O-])nn2C2CCCCC2)cc1` [Example 15e, 1-(1-Cyclohexyl-3-((2-(nitrooxy)ethoxy)methyl)pyrazol-5-yl)-4-(methylsulfonyl)benzene], for which the inhibition at 100 µM in series [1] (setting [3]) worked out at 35%. Further, the inhibition at 1 µM in series [2] (setting [4]) was 35%. Further, the inhibition at 10 µM in series [2] (setting [5]) was 75%.
As for `CS(=O)(=O)c1ccc(-c2cc(COCCCO[N+](=O)[O-])nn2-c2ccc(Cl)cc2)cc1` [Example 7e, 1-(1-(4-Chlorophenyl)-3-((3-(nitrooxy)propoxy)methyl)pyrazol-5-yl)-4-(methylsulfonyl)benzene], the inhibition at 100 µM in series [1] (setting [3]) came out at 90%. The inhibition at 1 µM in series [2] (setting [4]) amounted to 65%. In addition, the inhibition at 10 µM in series [2] (setting [5]) amounted to 100%.
